Measured values: patent US20020193404A1, “Use of bicyclic heterocycles for the treatment and prevention of arterial thrombotic disease” (priority 2001, published 2002)

Assays:
[1] = molecular target: T1, human fibrinogen receptor (glycoprotein IIb/IIIa) (Homo sapiens, UniProt P05106+P08514); assay: Inhibition of binding of 3H-BIBU 52 to human thrombocytes; settings: 3H-BIBU 52 5 nM, human thrombocytes in plasma, ambient temperature, 20 minutes
T1 construct: endogenous in cells; host or cells: human thrombocytes in platelet-rich plasma from donor blood
Experimental: The inhibiting effect on the human fibrinogen receptor (glycoprotein IIb/IIIa) was investigated as follows:
Inhibition of Binding of ^3H-BIBU 52 to Human Thrombocytes:
A suspension of human thrombocytes was incubated with ^3H-BIBU 52 [=(3S,5S)-5-[(4′-amidino-4-biphenylyl)oxymethyl]-3-[(carboxy)methyl]-2-pyrrolidinone[3-^3H-4-biphenylyl]], which replaces the ligand ^125I-fibrinogen known from the literature (cf. DE-A-4 214 245), and various concentrations of the substance being tested. The free and bound ligands were separated by centrifugation and quantitatively determined by scintillation counting. The inhibition of the ^3H-BIBU 52 binding by the test substance was determined from the measurements obtained. To do this, donor blood was taken from an anticubital vein and anticoagulated with trisodium citrate (final concentration: 13 mM). The blood was centrifuged for ten minutes at 170× g and the supernatant platelet-rich plasma (PRP) was removed. The remaining blood was sharply centrifuged once more to obtain plasma. The PRP was diluted 1:10 with autologous plasma. […] 100 μl thereof were assayed in order to quantify the free ligand. […] The residual plasma still remaining in the pellet was determined from the ^14C content while the bound ligand was determined from the ^3H measurement. […]

[2] = system: human citrated plasma; assay: aPTT (activated partial thromboplastin time) prolongation; settings: concentration at which the aPTT time was double that of the control, 37° C.
Experimental: The inhibiting effect of the two substances on blood clotting was measured by determining the prolongation of aPTT (activated partial thromboplastin time) as follows:
Plasma, from citrated human blood
PTT reagent, Boehringer Mannheim (524298)
Calcium solution (0.025 mol/L), Behring Werke, Marburg (ORH 056/57)
Diethyl barbiturate acetate buffer, Behring Werke, Marburg (ORWH 60/61)
The aPTT was determined using a Biomatic—B 10 coagulometer made by Messrs Desaga (Wiesloch). The test substance was placed in the test tubes prescribed by the manufacturer with 0.1 ml of human citrated plasma and 0.1 ml of PTT reagent. The preparations were incubated for three minutes at 37° C. The clotting reaction was started by the addition of 0.1 ml of calcium solution. The time taken for the plasma to clot was measured by the apparatus as the calcium solution was added. Analogous test preparations to which 0.1 ml of diethyl barbiturate acetate buffer had been added were used as controls. According to the definition of EC200, the substance concentration at which the aPTT time was double that of the control was determined using a dosage-activity curve.

T1 sequence (P08514 32-887 limits assumed): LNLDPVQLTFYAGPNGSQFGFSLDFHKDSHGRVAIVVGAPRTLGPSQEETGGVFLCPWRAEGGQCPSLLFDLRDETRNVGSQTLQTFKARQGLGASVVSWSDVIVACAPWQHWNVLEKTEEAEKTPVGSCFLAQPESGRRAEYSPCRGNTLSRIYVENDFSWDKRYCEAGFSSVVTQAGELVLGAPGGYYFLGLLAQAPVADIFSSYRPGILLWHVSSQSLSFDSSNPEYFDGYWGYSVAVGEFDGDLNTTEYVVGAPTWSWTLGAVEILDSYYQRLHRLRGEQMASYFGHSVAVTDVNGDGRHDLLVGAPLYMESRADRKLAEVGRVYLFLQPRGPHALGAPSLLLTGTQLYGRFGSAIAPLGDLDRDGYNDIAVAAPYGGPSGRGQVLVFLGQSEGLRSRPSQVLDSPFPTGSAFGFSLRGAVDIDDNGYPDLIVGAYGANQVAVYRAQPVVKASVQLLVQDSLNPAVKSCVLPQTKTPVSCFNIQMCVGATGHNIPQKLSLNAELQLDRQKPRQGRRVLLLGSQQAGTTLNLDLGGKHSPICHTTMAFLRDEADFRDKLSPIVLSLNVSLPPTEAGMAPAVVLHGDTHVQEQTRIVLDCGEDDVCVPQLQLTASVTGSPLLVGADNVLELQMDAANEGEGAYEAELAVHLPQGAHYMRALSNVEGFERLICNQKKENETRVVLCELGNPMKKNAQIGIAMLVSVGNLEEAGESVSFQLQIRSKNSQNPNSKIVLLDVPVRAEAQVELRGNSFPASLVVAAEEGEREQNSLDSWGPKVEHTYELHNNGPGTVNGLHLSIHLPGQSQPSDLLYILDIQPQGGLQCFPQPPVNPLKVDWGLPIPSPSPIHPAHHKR
T1 sequence (P08514 891-1039 partner limits assumed): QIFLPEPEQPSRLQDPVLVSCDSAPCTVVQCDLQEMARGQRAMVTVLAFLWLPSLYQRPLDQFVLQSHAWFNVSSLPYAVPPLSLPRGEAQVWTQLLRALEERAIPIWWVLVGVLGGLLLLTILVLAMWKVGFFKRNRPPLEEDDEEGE
T1 sequence (P05106 27-788): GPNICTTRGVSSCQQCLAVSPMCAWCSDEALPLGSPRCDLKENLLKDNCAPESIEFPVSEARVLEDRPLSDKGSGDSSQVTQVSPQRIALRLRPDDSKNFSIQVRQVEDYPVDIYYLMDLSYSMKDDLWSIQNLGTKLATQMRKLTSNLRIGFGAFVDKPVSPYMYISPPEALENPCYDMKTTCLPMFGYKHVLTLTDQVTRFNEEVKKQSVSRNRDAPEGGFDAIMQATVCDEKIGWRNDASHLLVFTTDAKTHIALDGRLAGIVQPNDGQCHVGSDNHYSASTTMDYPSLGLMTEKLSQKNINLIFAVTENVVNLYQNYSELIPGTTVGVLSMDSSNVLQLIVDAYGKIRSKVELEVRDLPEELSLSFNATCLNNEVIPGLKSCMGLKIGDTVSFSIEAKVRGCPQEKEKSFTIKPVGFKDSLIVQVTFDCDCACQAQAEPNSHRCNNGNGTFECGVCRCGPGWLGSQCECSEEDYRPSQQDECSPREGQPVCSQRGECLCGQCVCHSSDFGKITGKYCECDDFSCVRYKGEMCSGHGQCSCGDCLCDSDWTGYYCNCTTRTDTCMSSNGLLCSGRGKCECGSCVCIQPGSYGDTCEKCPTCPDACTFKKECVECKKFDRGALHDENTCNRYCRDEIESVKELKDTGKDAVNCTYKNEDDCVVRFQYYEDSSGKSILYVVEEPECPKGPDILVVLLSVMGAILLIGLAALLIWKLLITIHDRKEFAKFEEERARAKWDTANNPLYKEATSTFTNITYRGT

SMILES	IC50 [1] [nM]	aPTT (EC200) [2] [µmol/L]
Cn1c(CNc2ccc(C(=N)N)cc2)nc2cc(N(CC(=O)O)S(=O)(=O)c3cccc4cccnc34)ccc21 [B, 1-methyl-2-[N-(4-amidinophenyl)-aminomethyl]-5-[N-(hydroxycarbonylmethyl)-quinoline-8-sulphonylamino]-benzimidazole]	49	0.026
Cn1c(COc2ccc(C(=N)N)cc2)nc2cc(N(CC(=O)O)S(=O)(=O)c3cccc4cccnc34)ccc21 [A, 1-methyl-2-[(4-amidinophenyl)-oxymethyl]-5-[N-(hydroxycarbonylmethyl)-quinoline-8-sulphonylamino]-benzimidazole]	6	0.013
